Results: PubChem BioAssay AID1963851 (Molecular Pharmacology Branch, DTP, NCI, 2024)

Tested on: 188146-221-R-J1-PDC complex spheroid viability
Experiment: Anticancer human tumor 188146-221-R-J1-PDC patient-derived colon adenocarcinoma cell line growth inhibition [POLQ]
Settings: for IC50: curve of first compound; for viability, T/C: stronger effect = lower value
Procedure, shortened: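 PDC + HUVEC + MSC complex spheroids; POLQ inhibitors ± partner drugs; top conc. at/near clinical Cmax, else 10 microM (SN-38 1 microM), half-log dilutions; 37 degrees C, 5% CO2.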
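Note: spheroids exposed to compounds for seven days.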
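Throughout, for viability, T/C: 100% = DMSO vehicle control viability.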

## O=C(Nc1ccc(O)c(NS(=O)(=O)c2ccc(F)cc2)c1)c1ccc(-c2ccccc2)cc1 + Nc1ccc(C#CCN(C(=O)Cc2ncc(C(F)(F)F)cc2C(F)(F)F)c2ccc(F)cc2)nn1
Second compound 0.0316 µM
  IC50: > 10 µM
Second compound 0.1 µM
  IC50: > 10 µM
Second compound 0.316 µM
  IC50: > 10 µM
Second compound 1 µM
  IC50: > 10 µM
Second compound 3.16 µM
  IC50: > 10 µM
Second compound 10 µM
  IC50: > 10 µM
Second compound 0.0316 µM, first compound 0.0316 µM
  viability, T/C: 104%
Second compound 0.0316 µM, first compound 0.1 µM
  viability, T/C: 100%
Second compound 0.0316 µM, first compound 0.316 µM
  viability, T/C: 88%
Second compound 0.0316 µM, first compound 1 µM
  viability, T/C: 109%
Second compound 0.0316 µM, first compound 3.16 µM
  viability, T/C: 92.7%
Second compound 0.0316 µM, first compound 10 µM
  viability, T/C: 72%
Second compound 0.1 µM, first compound 0.0316 µM
  viability, T/C: 105%
Second compound 0.1 µM, first compound 0.1 µM
  viability, T/C: 119%
Second compound 0.1 µM, first compound 0.316 µM
  viability, T/C: 109%
Second compound 0.1 µM, first compound 1 µM
  viability, T/C: 104%
Second compound 0.1 µM, first compound 3.16 µM
  viability, T/C: 88.9%
Second compound 0.1 µM, first compound 10 µM
  viability, T/C: 63.6%
Second compound 0.316 µM, first compound 0.0316 µM
  viability, T/C: 119%
Second compound 0.316 µM, first compound 0.1 µM
  viability, T/C: 100%
Second compound 0.316 µM, first compound 0.316 µM
  viability, T/C: 93.5%
Second compound 0.316 µM, first compound 1 µM
  viability, T/C: 92%
Second compound 0.316 µM, first compound 3.16 µM
  viability, T/C: 93.6%
Second compound 0.316 µM, first compound 10 µM
  viability, T/C: 60.1%
Second compound 1 µM, first compound 0.0316 µM
  viability, T/C: 124%
Second compound 1 µM, first compound 0.1 µM
  viability, T/C: 112%
Second compound 1 µM, first compound 0.316 µM
  viability, T/C: 108%
Second compound 1 µM, first compound 1 µM
  viability, T/C: 79.7%
Second compound 1 µM, first compound 3.16 µM
  viability, T/C: 97.8%
Second compound 1 µM, first compound 10 µM
  viability, T/C: 73.2%
Second compound 3.16 µM, first compound 0.0316 µM
  viability, T/C: 111%
Second compound 3.16 µM, first compound 0.1 µM
  viability, T/C: 110%
Second compound 3.16 µM, first compound 0.316 µM
  viability, T/C: 118%
Second compound 3.16 µM, first compound 1 µM
  viability, T/C: 99.9%
Second compound 3.16 µM, first compound 3.16 µM
  viability, T/C: 107%
Second compound 3.16 µM, first compound 10 µM
  viability, T/C: 60.1%
Second compound 10 µM, first compound 0.0316 µM
  viability, T/C: 111%
Second compound 10 µM, first compound 0.1 µM
  viability, T/C: 118%
Second compound 10 µM, first compound 0.316 µM
  viability, T/C: 110%
Second compound 10 µM, first compound 1 µM
  viability, T/C: 99.1%
Second compound 10 µM, first compound 3.16 µM
  viability, T/C: 110%
Second compound 10 µM, first compound 10 µM
  viability, T/C: 68.6%
